Several values for one entry are separate records, joined by “and”; a condition that tells them apart may be missing. Identical values can stand only once. Entries after “also recorded” stand apart in the source; their conditions may differ. Like-named read-outs stand apart in the source and are kept apart here.
Assay: Plasma pharmacokinetics of pamiparib, single dose and steady state, non-compartmental
Type: in vivo, human
Details: for CL/F / Cmax / AUC(0-t) / AUC(0-inf): geometric mean (geometric CV%); for Cmax / AUC(0-t) / half-life / Tmax / AUC(0-inf): human, plasma; for half-life: geometric mean (range)
Experimental: Secondary objectives were assessment of PK parameters and antitumor activity. Blood samples for the PK analysis were collected at Cycle 1 on Days 1, 2, and 3. Pharmacokinetic sampling was performed at Cycle 1 on Day 1 (predose and at 0.5, 1, 2, 4, 6, 9, and 12 hours postdose), Day 2, Day 3, and Day 10 (predose and at 0.5, 1, 2, 4, 6, 9, and 12 hours postdose); then at Cycles 2 and 3 on Day 1 (predose and at 2 hours postdose). […] Tumor assessments were performed by the investigators at screening, every 6 weeks after the first dose of pamiparib in the 1st year, and every 12 weeks thereafter until progression, per RECIST v1.1. Patients completed the study at the time of their safety follow‐up visit; therefore, radiological assessment of disease progression was not performed after the safety follow‐up visit. Approximately 14 to 18 evaluable patients were expected to enroll in the phase 1 part of the study. The safety population included all patients who received ≥1 dose of pamiparib. The PK population included all patients for whom valid pamiparib PK parameters could be estimated. Antitumor activity per RECIST v1.1 was assessed in all evaluable patients. […] The population evaluable for CA‐125 response included patients in the safety population with baseline CA‐125 ≥2 x upper limit of normal. Descriptive statistics were used to summarize all study data. Continuous variables included the number of non‐missing observations, mean, standard deviation, median, minimum, and maximum. Categorical variables were summarized by their frequency and percentage. Progression‐free survival was estimated using the Kaplan–Meier method and the corresponding 95% confidence interval (CI) was constructed using Greenwood's formula. Standard PK parameters (i.e., area under the plasma concentration‐time curve [AUC] from time of drug administration; maximum plasma concentration [Cmax]; time to Cmax; elimination half‐life [t1/2]; apparent clearance; and apparent volume of distribution during terminal phase) were estimated and derived using standard non‐compartmental methods.

With `C[C@]12CCCN1CC1=NNC(=O)c3cc(F)cc4[nH]c2c1c34` [pamiparib, Pamiparib] the “Accumulation ratio, AUC0-12” value (20 mg BID, n 4) was 2.05, the “Accumulation ratio, Cmax” value (20 mg BID, n 4) was 1.78 and the “Accumulation ratio, AUC0-12” value (40 mg BID, n 4) was 3.95. The “Accumulation ratio, Cmax” value (40 mg BID, n 4) was 3.19, the “Accumulation ratio, AUC0-12” value (60 mg BID, n 5) was 3.4 and 3.36 and the “Accumulation ratio, Cmax” value (60 mg BID, n 5) was 2.6 and 2.62. For the same compound, the CL/F (Single dose, 20 mg BID cohort, N 4) was 1.95 (44) L/hr, the CL/F (Single dose, 40 mg BID cohort, N 4) was 2.07 (61) L/hr and the CL/F (Single dose, 60 mg BID cohort, N 7) was 2.19 (79) L/hr. The “Dose proportionality of plasma exposure (AUC and Cmax)” value (between 20 mg and 60 mg BID, after a single dose) was “increased near proportionally; also recorded: near dose‐proportional”, the Cmax (oral, 20 mg, Single dose, 20 mg BID cohort, N 4, plasma) was 718 ng/mL and the AUC(0-t) (oral, 20 mg, Single dose, 20 mg BID cohort, N 4, read-out: AUC0-9) was 4130 ng·h/mL. For the same compound, the AUC(0-t) (oral, 20 mg, Single dose, 20 mg BID cohort, N 4, read-out: AUC0-12) was 5030 ng·h/mL, the half-life (oral, 20 mg, Single dose, 20 mg BID cohort, N 4) was 12.1 h and the Tmax (oral, 20 mg, Single dose, 20 mg BID cohort, N 4, median (range), read-out: Tmax) was 1.01 h. It also gave a Cmax (oral, 20 mg, Steady state (Cycle 1 Day 10), 20 mg BID, N 4) of 1280 ng/mL, an AUC(0-t) (oral, 20 mg, Steady state (Cycle 1 Day 10), 20 mg BID, N 4, read-out: AUC0-9) of 8360 ng·h/mL and an AUC(0-t) (oral, 20 mg, Steady state (Cycle 1 Day 10), 20 mg BID, N 4, read-out: AUC0-12) of 10300 ng·h/mL. The Tmax (oral, 20 mg, Steady state (Cycle 1 Day 10), 20 mg BID, N 4, median (range), read-out: Tmax) was 1.04 h, the Cmax (oral, 40 mg, Single dose, 40 mg BID cohort, N 4, plasma) was 1630 ng/mL and the AUC(0-t) (oral, 40 mg, Single dose, 40 mg BID cohort, N 4, read-out: AUC0-9) was 8560 ng·h/mL. For the same compound, the AUC(0-t) (oral, 40 mg, Single dose, 40 mg BID cohort, N 4, read-out: AUC0-12) was 10400 ng·h/mL, the half-life (oral, 40 mg, Single dose, 40 mg BID cohort, N 4) was 11.8 h and the Tmax (oral, 40 mg, Single dose, 40 mg BID cohort, N 4, median (range), read-out: Tmax) was 0.98 h. The Cmax (oral, 40 mg, Steady state (Cycle 1 Day 10), 40 mg BID, N 4) was 5210 ng/mL, the AUC(0-t) (oral, 40 mg, Steady state (Cycle 1 Day 10), 40 mg BID, N 4, read-out: AUC0-9) was 32500 ng·h/mL and the AUC(0-t) (oral, 40 mg, Steady state (Cycle 1 Day 10), 40 mg BID, N 4, read-out: AUC0-12) was 40900 ng·h/mL. It also gave a Tmax (oral, 40 mg, Steady state (Cycle 1 Day 10), 40 mg BID, N 4, median (range), read-out: Tmax) of 1.1 h, a Cmax (oral, 60 mg, Single dose, 60 mg BID cohort, N 7, plasma) of 2300 ng/mL and an AUC(0-t) (oral, 60 mg, Single dose, 60 mg BID cohort, N 7, read-out: AUC0-9) of 11900 ng·h/mL. For the same compound, the AUC(0-t) (oral, 60 mg, Single dose, 60 mg BID cohort, N 7, read-out: AUC0-12) was 14800 ng·h/mL, the half-life (oral, 60 mg, Single dose, 60 mg BID cohort, N 7) was ~14 h and the Tmax (oral, 60 mg, Single dose, 60 mg BID cohort, N 7, median (range), read-out: Tmax) was 1.13 h. For the same compound, the Cmax (oral, 60 mg, Steady state (Cycle 1 Day 10), 60 mg BID, N 5) was 5860 ng/mL, the AUC(0-t) (oral, 60 mg, Steady state (Cycle 1 Day 10), 60 mg BID, N 5, read-out: AUC0-9) was 38100 ng·h/mL and the AUC(0-t) (oral, 60 mg, Steady state (Cycle 1 Day 10), 60 mg BID, N 5, read-out: AUC0-12) was 47100 ng·h/mL. It also gave a Tmax (oral, 60 mg, Steady state (Cycle 1 Day 10), 60 mg BID, N 5, median (range), read-out: Tmax) of 1.13 h, an AUC(0-inf) (oral, Single dose, 20 mg BID cohort, N 4) of 10200 ng·h/mL and an AUC(0-inf) (oral, Single dose, 40 mg BID cohort, N 4) of 19300 ng·h/mL. The AUC(0-inf) (oral, Single dose, 60 mg BID cohort, N 7) was 27500 ng·h/mL, the Tmax (po, 60 mg, oral administration, RP2D of 60 mg BID, read-out: median Tmax) was ~1 h and the “Plasma exposure after a single dose compared with FIH study” value (single-dose administration) was “similar”. The “Steady-state exposure compared with FIH study” value (steady state) was “slightly higher”.

Source: paper PMC7826463, “Pamiparib dose escalation in Chinese patients with non‐mucinous high‐grade ovarian cancer or advanced triple‐negative breast cancer” (Cancer Medicine, 2020)
